Laboratory results as given in patent US7235584B2, “Non-psychotropic cannabinoids” (Pharmos Corporation, priority 2000, dated 2007).

Key:
NMDA receptor = experiment: [3H]MK-801 displacement radioligand binding, rat forebrain membranes
Experimental: The identification of possible recognition sites for PRS-211 analogs was carried out by measuring the ability of these PRS-211 analogs to inhibit the binding of MK-801 to rat forebrain membranes.
Brains were removed from Sprague-Dawley rats no more than 5 min after decapitation. Membrane preparations were isolated according to a procedure described previously (Eshhar et al., Brain Res. 476:57, 1989). Prior to radioligand binding measurements, endogenous glutamate present in membranes was removed from the preparation by subjecting the membranes to 3–4 successive washings in 10 mM Tris HCl pH 7.2, performed at 4° C.
The specific binding of the new analogs to NMDA receptors was determined by their ability to displace [^3H]MK-801 from NMDA receptor in rat forebrain preparations. Specifically, rat-forebrain membranes (0.1 mg) were incubated for 2 hours at room temperature with 10 nM of tritiated MK-801 and with the PRS-211 compounds at 3 doses each. Non-specific binding was determined by the use of 0.1 mM MK-801. Following the incubation, bound radioligand was separated from unbound by filtration through GF/B filters. The filters were counted in a β-counter and log of analog concentrations versus % of [^3H]MK-801 specific binding was plotted. The IC50 was calculated from this plot.
Binding of [^3H]MK-801 to membranes was carried out in the presence of 30 μM glycine and 10 μM L-glutamate. Membranes (250 μg protein) were resuspended in 50 mM tris-acetate pH 7.4 buffer and incubated with 10 nM [^3H]MK-801, either alone or in the presence of PRS-211 compounds at 0.1–100 μM concentrations for three hours at room temperature (RT). Reaction buffers used in the different radioligand binding studies contained 10% of an ethanol/Emulphor 620/deionized water mixture. The ratio (by volume) of the respective components in the mixture was 20/3/57. This mixture is required for solubilizing PRS-211 compounds at concentrations above 30 μM. Reaction volume was 1 ml. Non-specific [^3H]MK-801 binding was determined in the presence of 100 μM unlabeled MK-801.
Concentration dependence of certain PRS-211 analogs on inhibition of [^3H]MK-801 binding is illustrated in FIG. 1.

tail flick model in mice = experiment: Tail flick model: analgesic effect and tolerance to morphine; type: in vivo, ICR male mice; settings: for analgesic activity administered separately: escalating doses of up to 10 mg/kg i.p.
Description: A mice model of acute pain, the tail flick model, was used to test the ability of compounds to prolong the analgesic activity of opioids, by preventing the development of tolerance, and their ability to reverse established tolerance.
The following animal model of acute pain was used to assess the potential analgesic effects of test compounds either alone or in combination with morphine. […] In this model the nociceptive stimulus is thermal and the latency time till the animal flicks its tail is monitored (Le Bars D., Gozariu M. & Cadden S. W., Pharmacol. Rev. 53: 597–652, 2001).
Hyperalgesia to radiant heat was assessed as follows. ICR male mice (20–30 g average body weight, Harlan, Israel) were injected with test compounds i.p. at the volume dose of 5 ml/kg. Each treatment group contained at least 6 animals. The test compounds were dissolved in Cremophor®:ethanol (70:30 weight/weight) and diluted 1:20 in saline prior to injection. Morphine HCl was directly dissolved in saline. Its vehicle was also included as control. Pain threshold was determined 30 minutes post-administration by measuring the foot-withdrawal latency defined as the time from the onset of radiant heat to foot withdrawal. The cut-off time was preset to 10 seconds in order to prevent tissue damage. […] Test compounds (5 mg/kg) and vehicle (5 ml/kg) were administered 15 minutes before morphine and pain threshold was determined 30 minutes after the first injection of morphine on day 1, 5, 8 and 10. […] Pain threshold was determined on day 1 and 10.
In each type of study, the animals were tested on given days 30 minutes after morphine injection in the tail flick apparatus (Socrel, model DS 20). Animals were gently held while their tails were located above the photoelectric cell. The tails were then illuminated (21V) at 2 cm from the distal tip and the latency time, measured in seconds, was recorded in duplicates. The results are expressed either as absolute latency time or as percent of animals that enjoyed significant analgesia as measured by the fact that their latency time is at least twice the latency time for vehicle treated animals. At the end of the study, the animals were euthanized by i.p. injection of 100 mg/kg sodium pentobarbitone.
The differences between the latency times among various treatment groups was analyzed by analysis of variance (ANOVA) followed by post-hoc Duncan test. The differences between the % of animals showing analgesia among various treatment groups was analyzed by analysis of variance (ANOVA) followed by post-hoc Fisher exact test. A value of p<0.05 is considered to be statistically significant.

| Compound | NMDA receptor binding / affinity (in words) (NMDA receptor) | analgesic activity administered separately (tail flick model in mice) | Ki (NMDA receptor; rat forebrain membranes, read-out: inhibition constant (KI) of [3H]MK-801 binding) | IC50 (NMDA receptor; rat forebrain membranes, read-out: mean IC50 of [3H]MK-801 binding (FIG. 2)) | development of tolerance to morphine (tail flick model in mice; 5 mg/kg in combination with 10 mg/kg i.p. morphine over 10 days) | reversal of established tolerance to morphine (tail flick model in mice; in combination with morphine from day 11, tested day 12, 15, 17, PRS-211,220 5 mg/kg, dextromethorphan 20 mg/kg) |
| --- | --- | --- | --- | --- | --- | --- |
| CCCCCCC(C)(C)c1cc(O)c2c(c1)OC(C)(C)C1CC=C(CSc3ncc[nH]3)CC21 (single isomer, unassigned; (+)) [211,092-000] | low affinity | no significant analgesic activity |  |  |  |  |
| CCCCCCC(C)(C)c1cc(O)c2c(c1)OC(C)(C)C1CC=C(Cn3ccnc3)CC21.Cl (single isomer, unassigned; (+)) [211,095-000, (+)-(3S ,4S )-6,6-Dimethyl-(1,1-dimethylheptyl)-1-hydroxy-9-(imidazolomethyl)-6a,7,10,10a-tetrahydro-6H-dibenzo[b,d]pyran] | relatively high affinity | no significant analgesic activity |  |  |  |  |
| CCCCCCC(C)(C)c1cc(O)c2c(c1)OC(C)(C)[C@H]1CC=C(CO)CC21 (stereo partly drawn) [211,007-000, 1,1 dimethyl heptyl-(3S,4S)-7-hydroxy-Δ^6-tetrahydrocannabinol] | competes with the binding of MK-801 to membranes |  | 11 ± 1.3 µM | 10 µM |  |  |
| CCCCCCC(C)(C)c1cc(O)c2c(c1)OC(C)(C)[C@H]1CC=C(Cn3cccn3)C[C@H]21 [211,220-000, (+)-(3S,4S)-6,6-Dimethyl-(1,1-dimethylheptyl)-1-hydroxy-9-(pyrazolomethyl)-6a,7,10,10a-tetrahydro-6H-dibenzo[b,d]pyran] | relatively high affinity | no significant analgesic activity |  |  | effective in reducing the development of tolerance toward opioid | trend of reversal at all time points tested which became statistically significant on day 17 |
